# Laboratory results as given in US20110209228A1, “METHOD OF TREATMENT USING ANTIMICROBIAL COMPOSITION” (priority 2008, published 2011).
# Ends that are not written are not given here.
# Assays:
# E. coli DH5α = assay: microbroth dilution method, peptide and antibiotic combination; format: cell-based; details: tetracycline or chloramphenicol, E. coli DH5α
# Procedure: To determine whether or not antimicrobial peptides as described herein act in a synergistic manner with antibiotic compounds, a microbroth dilution method was performed against E. coli DH5α performed according to the guidelines of the National Committee for Clinical Laboratory Standards.
# milk proteases = assay: Western blotting of CHO cell extracts incubated in bovine milk; details: CHO cell extract, 2 hr
# Procedure: Western blotting of cell lysates was performed according to standard procedures to confirm expression of peptides in mammalian cells. Briefly, cell extracts and culture supernatants were obtained from CHO cells transfected with the vectors pCMV-SPORT6-AGG01 and pCMV-SPORT6-AGG02, resolved in 18% (w/v) SDS/polyacrylamide electrophoresis gels, transferred by electroblotting onto nitrocellulose membrane and either stained in Ponceau S or probed with polyclonal antisera. In a further example, cell extracts were incubated in bovine milk for 2 hrs prior to their preparation for electrophoresis, to determine stability in milk. Control samples comprises non-transfected CHO cell extracts and supernatants. Membranes were developed using polyclonal rabbit anti-mAGG01 serum that had been produced according to standard procedures, by immunizing rabbits with synthetic peptide (i.e., SEQ ID NO: 7).
# S. uberis = details: both high and low salt concentrations
# S. pseudointermedin = details: for activity against isolates (in words): S. pseudointermedin otitis externa isolates
# S. schleiferi = details: for activity against isolates (in words): S. schleiferi otitis externa isolates
# [1] = test system: Streptococcus agalactiae (ATCC 12927)
# [2] = test system: all microorganisms tested; details: for antimicrobial activity against pathogens that cause mastitis (in words): S. uberis, E. coli, S. aureus and S. agalactiae
# S. epidermis = details: for activity against isolates (in words): S. epidermis otitis externa isolates
# [3] = heat resistance of antimicrobial peptides; details: 200 μg/ml; for antimicrobial bioactivity in phosphate buffer following heat treatment (in words): 10 mM phosphate buffer, up to 56° C. 30 min or 70° C. 15 min; for bioactivity in pasteurized milk following heat treatment (in words): pasteurised milk, up to 68° C. 30 min or 71.7° C. 20 sec, data not shown
# [4] = test system: Candida albicans (ATCC 753)
# Pseudomonas aeruginosa = details: for activity against isolates (in words): Pseudomonas aeruginosa otitis externa isolates
# [5] = bioactivity of peptides in milk; details: 200 μg/ml, 37° C., 30 or 60 min, data not shown
# S. aureus = details: for activity against isolates (in words): S. aureus otitis externa isolates
# [6] = test system: Staphylococcus aureus (ATCC 25923)
# lactobacilli = assay: activity against lactobacilli (dairy starter culture); format: cell-based; details: dairy starter culture comprising lactobacilli
# Description: In separate experiments, the peptide AGG01 (SEQ ID NO: 7) or AG002 (SEQ ID NO: 8) is shown to be suitable for use in a dairy starter culture comprising lactobacilli, especially one or more Lactis spp., in particular one or more organisms selected individually or collectively from the group consisting of: L. helveticus, L. acidophilus, L. lactis, L. bugaricus and L. citrovorum, and especially L. acidophilus.
# [7] = test system: Salmonella choleraesuis (ATCC 14028)
# [8] = test system: Streptococcus equi equi (ATCC 9527)
Substance,synergy with antibiotics (in words) (E. coli DH5α),MIC (S. suis),MIC (S. pseudointermedin),activity against isolates (in words) (S. pseudointermedin),MIC (S. schleiferi),activity against isolates (in words) (S. schleiferi),MIC [1],antimicrobial activity against pathogens that cause mastitis (in words) [2],MIC (S. choleraesuis),MIC (B. bronchiseptica),MIC (E. coli),MIC (S. epidermis),activity against isolates (in words) (S. epidermis),antimicrobial bioactivity in phosphate buffer following heat treatment (in words) [3],bioactivity in pasteurized milk following heat treatment (in words) [3],MIC [4],MIC (A. pleuropneumoniae),MIC (H. somnus),MIC (Pseudomonas aeruginosa),activity against isolates (in words) (Pseudomonas aeruginosa),other results
KRGFGKKLRKRLKKFRNSIKKRLKNFNVVIPIPLP-NH2 [SEQ ID NO: 7],act synergistically,16 to 32 µg/mL,1 to 2 µg/mL,especially strong activity,2 to 4 µg/mL,especially strong activity,3.81 µg/mL,exhibited antimicrobial activity,4 to 8 µg/mL,1 to 2 µg/mL,1 to 8 µg/mL,1 µg/mL,especially strong activity,retain their antimicrobial bioactivity,"active in pasteurized milk, even following heat treatment",5.48 ± 0.16 µg/mL,8 µg/mL,16 µg/mL,2 to 4 µg/mL,Strong antimicrobial activity,"activity against isolates (in words) (S. suis; S. suis BRD/SRD isolates): weaker activity; presence of peptide following incubation with bovine milk (Western blot, in words) (milk proteases): present; inhibiting growth of and/or killing S. uberis (in words) (S. uberis): capable of inhibiting growth of and/or killing S. uberis; MIC, active against all microorganisms tested ([2]; summary of Table 1): less than 10 μg/ml; activity against isolates (in words) (B. bronchiseptica; B. bronchiseptica BRD/SRD isolates): especially strong activity; activity against isolates (in words) (E. coli; E. coli BRD/SRD isolates): especially strong activity; activity against isolates (in words) (A. pleuropneumoniae; A. pleuropneumoniae BRD/SRD isolates): Intermediate activity; activity against isolates (in words) (H. somnus; H. somnus BRD/SRD isolates): weaker activity; MIC (P. haemolytica): 1 to 16 µg/mL; activity against isolates (in words) (P. haemolytica; P. haemolytica BRD/SRD isolates): possibly also against P. haemolytica; antimicrobial bioactivity in fresh milk (in words) [5]: retained; antimicrobial bioactivity in pasteurized milk (in words) [5]: slightly reduced; MIC (P. multicoda): 16 µg/mL; MIC (S. aureus): 2 µg/mL; activity against isolates (in words) (S. aureus): especially strong activity; MIC [6]: 5.72 ± 0.37 µg/mL; activity against lactobacilli (in words) (lactobacilli): low activity against lactobacilli"
KRGLWESLKRKATKLGDDIRNTLRNFKIKFPVPRQ-NH2 [SEQ ID NO: 8],act synergistically,4 to 8 µg/mL,1 µg/mL,especially strong activity,2 to 4 µg/mL,especially strong activity,1.2 µg/mL,has antimicrobial activity,>64 µg/mL,32 µg/mL,8 to 32 µg/mL,2 µg/mL,especially strong activity,retain their antimicrobial bioactivity,reduced or inhibited,10.01 ± 0.47 µg/mL,16 µg/mL,32 µg/mL,8 to 32 µg/mL,slightly weaker activity,MIC [7]: 9.32 ± 0.38 µg/mL; MIC [8]: 4.85 ± 0.35 µg/mL; MIC (P. haemolytica): 4 to 64 µg/mL; antimicrobial bioactivity in fresh milk (in words) [5]: reduced or inhibited; antimicrobial bioactivity in pasteurized milk (in words) [5]: reduced or inhibited; MIC (P. multicoda): 8 to 32 µg/mL; MIC (S. aureus): 4 µg/mL; activity against isolates (in words) (S. aureus): especially strong activity; MIC [6]: 5.44 ± 0.49 µg/mL; activity against lactobacilli (in words) (lactobacilli): low activity against lactobacilli
